Laboratory results reported in ChEMBL document CHEMBL1201862, “PubChem BioAssay data set” (2004).
The source made the active and inactive calls.

How the values were obtained:
[1] = molecular target: T1, Long-chain-fatty-acid--AMP ligase FadD28 (Mycobacterium tuberculosis, UniProt P9WQ59); assay: Fluorescence polarization aasay to screen for inhibitors that compete for the binding of FadD28 to a bisubstrate Measured in Biochemical System Using Plate Reader - 2147-01_Inhibitor_Dose_CherryPick_Activity.; format: functional, Mycobacterium tuberculosis H37Rv
T1 sequence (P9WQ59 whole entry): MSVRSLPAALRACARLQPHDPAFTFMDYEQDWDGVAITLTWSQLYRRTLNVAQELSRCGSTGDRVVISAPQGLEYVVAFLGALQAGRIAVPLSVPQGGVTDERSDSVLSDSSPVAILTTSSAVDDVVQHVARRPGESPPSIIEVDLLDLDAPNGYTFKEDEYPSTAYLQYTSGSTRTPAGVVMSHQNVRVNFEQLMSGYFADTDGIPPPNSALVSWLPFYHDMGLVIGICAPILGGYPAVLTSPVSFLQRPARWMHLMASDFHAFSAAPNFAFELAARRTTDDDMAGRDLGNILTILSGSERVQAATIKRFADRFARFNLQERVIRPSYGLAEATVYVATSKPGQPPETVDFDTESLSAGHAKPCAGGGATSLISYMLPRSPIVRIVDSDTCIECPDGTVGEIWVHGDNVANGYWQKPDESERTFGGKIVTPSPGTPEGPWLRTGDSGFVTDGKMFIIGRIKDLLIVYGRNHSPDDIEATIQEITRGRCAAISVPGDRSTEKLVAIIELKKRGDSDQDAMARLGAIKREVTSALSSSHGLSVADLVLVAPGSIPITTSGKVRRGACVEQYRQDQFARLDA

[2] = molecular target: ADP-ribosylation factor GTPase-activating protein 1 (Rattus norvegicus, UniProt Q62848); assay: Fluorescence polarization-based biochemical high throughput dose response screening assay to identify inhibitors of ADP-ribosylation factor GTPase activating protein 1 (ARFGAP1).; format: functional
[3] = molecular target: Arf-GAP with SH3 domain, ANK repeat and PH domain-containing protein 1 (Homo sapiens, UniProt Q9ULH1); format: functional;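 further: biochemical fluorescence polarization dose–response screen measuring inhibition of ASAP1; ASAP1 GAP domain stimulating GTP hydrolysis by truncated human ARF1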
[4] = molecular target: T2, Short transient receptor potential channel 4 (Mus musculus, UniProt Q9QUQ5); assay: mouse TRPC4 channel inhibitors, dose response, cell-based, HEK293 TRPC4/mu-opioid, Fluo-4 calcium (AID 434942); format: functional;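 further: potency of inhibitors blocking the TRPC4 calcium response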
T2 sequence (Q9QUQ5 whole entry): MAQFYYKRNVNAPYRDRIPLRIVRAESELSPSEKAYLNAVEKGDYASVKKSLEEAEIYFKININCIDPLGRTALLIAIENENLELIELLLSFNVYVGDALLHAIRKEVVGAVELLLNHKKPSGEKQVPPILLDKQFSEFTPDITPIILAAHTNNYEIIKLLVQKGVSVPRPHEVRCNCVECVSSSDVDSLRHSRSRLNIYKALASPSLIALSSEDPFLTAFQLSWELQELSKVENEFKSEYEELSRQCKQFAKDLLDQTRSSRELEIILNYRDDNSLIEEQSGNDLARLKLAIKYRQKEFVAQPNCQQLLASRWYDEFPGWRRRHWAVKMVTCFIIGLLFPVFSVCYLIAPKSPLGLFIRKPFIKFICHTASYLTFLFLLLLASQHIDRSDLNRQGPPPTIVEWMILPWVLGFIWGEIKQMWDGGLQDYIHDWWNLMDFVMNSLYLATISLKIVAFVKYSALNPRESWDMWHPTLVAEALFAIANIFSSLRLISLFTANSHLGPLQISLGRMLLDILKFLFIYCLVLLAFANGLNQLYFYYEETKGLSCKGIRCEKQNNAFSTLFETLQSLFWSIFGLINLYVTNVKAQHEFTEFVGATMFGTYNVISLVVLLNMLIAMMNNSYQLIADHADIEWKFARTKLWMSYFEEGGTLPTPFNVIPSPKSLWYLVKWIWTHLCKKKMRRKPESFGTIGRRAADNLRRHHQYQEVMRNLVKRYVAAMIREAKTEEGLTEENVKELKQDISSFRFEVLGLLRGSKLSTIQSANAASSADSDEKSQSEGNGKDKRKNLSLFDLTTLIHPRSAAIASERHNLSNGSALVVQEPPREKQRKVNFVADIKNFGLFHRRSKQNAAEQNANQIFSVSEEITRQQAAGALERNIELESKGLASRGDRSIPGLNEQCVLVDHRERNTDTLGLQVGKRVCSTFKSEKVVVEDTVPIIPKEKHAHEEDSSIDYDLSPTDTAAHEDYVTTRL

Mu-type opioid receptor = Mu-type opioid receptor (Homo sapiens, UniProt P35372); format: functional, cell-based;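 further: U2OS cells with beta-arrestin recruitment to OPRM1 by beta-gal complementation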
[5] = molecular target: 5-hydroxytryptamine receptor 2A (Mus musculus, UniProt P35363); format: functional, cell-based;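 further: CHO-K1 cells with tagged receptor and beta-arrestin; agonist potency measured as compound-induced activation of the receptor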
[6] = molecular target: T3, DNA repair protein RAD52 homolog (Homo sapiens, UniProt P43351); format: functional, biochemical
T3 sequence (P43351 whole entry): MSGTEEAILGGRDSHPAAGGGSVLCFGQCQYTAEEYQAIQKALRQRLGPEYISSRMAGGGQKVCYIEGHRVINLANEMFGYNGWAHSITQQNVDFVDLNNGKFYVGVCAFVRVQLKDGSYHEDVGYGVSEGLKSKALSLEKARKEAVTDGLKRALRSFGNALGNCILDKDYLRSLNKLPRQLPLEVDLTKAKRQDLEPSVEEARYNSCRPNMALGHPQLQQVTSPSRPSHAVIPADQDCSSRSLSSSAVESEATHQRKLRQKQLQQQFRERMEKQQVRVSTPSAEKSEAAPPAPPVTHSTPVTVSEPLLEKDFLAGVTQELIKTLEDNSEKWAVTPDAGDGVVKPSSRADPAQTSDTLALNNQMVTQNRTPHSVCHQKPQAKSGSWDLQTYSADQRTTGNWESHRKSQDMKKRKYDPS

[7] = molecular target: T4, Heat shock factor protein 1 (Mus musculus, UniProt P38532); assay: HSF1 potentiators in luciferase reporter cells, confirmation, cell-based, NIH3T3, luminescence, dose retest (AID 435004); format: functional;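 further: stress induced by proteasome inhibitor MG132 added 30 min after compound; luciferase reporter driven by HSF1 response element in NIH3T3 cells; actives raise luminescence as potentiators of the MG132 stress response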
T4 sequence (P38532 whole entry): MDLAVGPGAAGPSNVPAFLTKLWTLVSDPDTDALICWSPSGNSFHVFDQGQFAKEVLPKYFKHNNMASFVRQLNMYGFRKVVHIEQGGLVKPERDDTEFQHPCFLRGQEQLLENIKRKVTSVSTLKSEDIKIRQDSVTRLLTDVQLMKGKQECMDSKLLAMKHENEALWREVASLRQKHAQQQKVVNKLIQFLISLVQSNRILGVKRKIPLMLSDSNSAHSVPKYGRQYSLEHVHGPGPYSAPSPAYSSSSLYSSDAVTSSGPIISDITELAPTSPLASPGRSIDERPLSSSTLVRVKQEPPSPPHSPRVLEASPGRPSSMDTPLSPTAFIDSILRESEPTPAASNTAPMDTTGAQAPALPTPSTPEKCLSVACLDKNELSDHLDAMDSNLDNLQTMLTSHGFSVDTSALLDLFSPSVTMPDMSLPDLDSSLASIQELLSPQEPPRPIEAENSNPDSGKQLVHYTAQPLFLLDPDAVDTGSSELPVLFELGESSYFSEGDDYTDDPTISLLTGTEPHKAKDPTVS

[8] = molecular target: T5, Corticotropin-releasing factor receptor 2/Corticotropin-releasing factor-binding protein (Homo sapiens, UniProt P24387+Q13324); assay: Dose Response confirmation of uHTS hits for small molecule antagonists of the CRF-binding protein and CRF-R2 receptor complex.; format: functional; details: read-out: IC50_Mean
T5 sequence (Q13324 whole entry): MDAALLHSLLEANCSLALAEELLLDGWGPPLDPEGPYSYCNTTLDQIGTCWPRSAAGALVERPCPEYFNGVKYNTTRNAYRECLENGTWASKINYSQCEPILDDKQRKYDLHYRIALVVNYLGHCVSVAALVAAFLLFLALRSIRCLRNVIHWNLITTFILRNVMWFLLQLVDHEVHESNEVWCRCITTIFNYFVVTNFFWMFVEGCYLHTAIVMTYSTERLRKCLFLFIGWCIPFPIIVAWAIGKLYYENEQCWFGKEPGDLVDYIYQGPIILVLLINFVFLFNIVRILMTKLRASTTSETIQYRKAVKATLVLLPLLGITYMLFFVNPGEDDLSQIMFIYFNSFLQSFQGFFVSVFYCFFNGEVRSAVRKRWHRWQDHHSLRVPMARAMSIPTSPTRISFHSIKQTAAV
T5 sequence (P24387 whole entry): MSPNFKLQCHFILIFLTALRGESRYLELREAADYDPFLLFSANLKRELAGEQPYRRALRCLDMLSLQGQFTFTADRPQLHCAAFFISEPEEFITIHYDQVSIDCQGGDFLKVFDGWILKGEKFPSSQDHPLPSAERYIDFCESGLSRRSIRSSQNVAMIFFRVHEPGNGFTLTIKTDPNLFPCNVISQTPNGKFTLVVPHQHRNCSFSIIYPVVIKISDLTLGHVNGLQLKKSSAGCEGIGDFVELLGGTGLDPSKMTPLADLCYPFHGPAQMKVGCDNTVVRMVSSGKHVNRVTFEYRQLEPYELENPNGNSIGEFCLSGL

[9] = molecular target: T5, Corticotropin-releasing factor receptor 2/Corticotropin-releasing factor-binding protein; assay: activators of CRF receptor 2 with binding protein – uHTS hits, confirmation (AID 602473); format: functional; details: read-out: EC50_Mean
Albumin = Albumin (Bos taurus, UniProt P02769); assay: Counterscreen for inhibitors of T-cell receptor (TCR)-CD3 interaction: Fluorescence-based biochemical high throughput dose response assay to identify inhibitors of T-cell receptor (TCR)-CD3 interaction using a TAMRA-labeled BSA probe.; format: functional
[10] = HeLa cell cytotoxicity, dose response, cytotoxicity control for MgcRacGAP inhibitor project (AID 624300); format: functional
[11] = molecular target: T6, Rac GTPase-activating protein 1 (Homo sapiens, UniProt Q9H0H5); assay: MgcRacGAP GTPase-activating activity inhibitors, confirmation, biochemical, ADP Hunter fluorescence, primary and confirmatory (AID 624330); format: functional
T6 sequence (Q9H0H5 whole entry): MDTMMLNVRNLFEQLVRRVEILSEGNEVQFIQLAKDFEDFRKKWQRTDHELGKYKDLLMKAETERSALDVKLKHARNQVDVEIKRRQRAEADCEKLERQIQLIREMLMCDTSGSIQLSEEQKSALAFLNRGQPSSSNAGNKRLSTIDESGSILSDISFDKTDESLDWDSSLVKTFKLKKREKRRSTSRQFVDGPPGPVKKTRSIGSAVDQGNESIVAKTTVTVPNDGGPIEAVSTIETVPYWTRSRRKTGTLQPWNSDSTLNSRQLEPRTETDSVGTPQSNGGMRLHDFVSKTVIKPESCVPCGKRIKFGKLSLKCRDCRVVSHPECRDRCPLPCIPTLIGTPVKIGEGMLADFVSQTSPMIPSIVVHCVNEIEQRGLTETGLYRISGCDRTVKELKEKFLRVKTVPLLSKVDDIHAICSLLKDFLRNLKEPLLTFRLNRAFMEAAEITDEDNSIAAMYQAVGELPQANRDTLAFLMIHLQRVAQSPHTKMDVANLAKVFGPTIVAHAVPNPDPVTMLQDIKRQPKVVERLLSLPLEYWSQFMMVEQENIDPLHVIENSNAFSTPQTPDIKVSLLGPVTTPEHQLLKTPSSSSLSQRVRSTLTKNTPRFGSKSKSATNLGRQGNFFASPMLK

Chain of 5-hydroxytryptamine receptor 2A (P35363 whole entry): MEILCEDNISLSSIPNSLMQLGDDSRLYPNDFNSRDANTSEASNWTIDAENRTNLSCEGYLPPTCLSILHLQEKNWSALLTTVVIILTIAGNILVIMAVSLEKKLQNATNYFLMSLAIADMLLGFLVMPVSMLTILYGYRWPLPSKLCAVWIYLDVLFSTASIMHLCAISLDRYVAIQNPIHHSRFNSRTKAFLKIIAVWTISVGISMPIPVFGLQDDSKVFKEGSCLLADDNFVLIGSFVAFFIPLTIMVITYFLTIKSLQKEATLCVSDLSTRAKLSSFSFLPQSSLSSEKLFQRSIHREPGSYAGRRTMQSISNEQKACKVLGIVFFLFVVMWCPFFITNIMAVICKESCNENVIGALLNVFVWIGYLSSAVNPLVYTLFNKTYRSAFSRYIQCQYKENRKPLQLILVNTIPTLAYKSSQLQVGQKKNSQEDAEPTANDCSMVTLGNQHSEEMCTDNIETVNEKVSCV
Chain of Mu-type opioid receptor (P35372 whole entry): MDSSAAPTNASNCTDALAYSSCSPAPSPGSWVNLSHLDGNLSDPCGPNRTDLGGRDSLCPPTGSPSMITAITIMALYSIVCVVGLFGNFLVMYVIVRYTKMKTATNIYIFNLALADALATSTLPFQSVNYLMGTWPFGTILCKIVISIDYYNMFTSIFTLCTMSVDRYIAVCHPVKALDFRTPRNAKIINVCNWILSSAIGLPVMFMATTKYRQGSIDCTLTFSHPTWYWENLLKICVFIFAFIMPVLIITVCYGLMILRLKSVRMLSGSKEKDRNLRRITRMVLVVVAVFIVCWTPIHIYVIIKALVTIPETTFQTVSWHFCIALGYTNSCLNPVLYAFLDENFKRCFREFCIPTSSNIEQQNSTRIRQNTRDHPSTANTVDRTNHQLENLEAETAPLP
Chain of Albumin (P02769 whole entry): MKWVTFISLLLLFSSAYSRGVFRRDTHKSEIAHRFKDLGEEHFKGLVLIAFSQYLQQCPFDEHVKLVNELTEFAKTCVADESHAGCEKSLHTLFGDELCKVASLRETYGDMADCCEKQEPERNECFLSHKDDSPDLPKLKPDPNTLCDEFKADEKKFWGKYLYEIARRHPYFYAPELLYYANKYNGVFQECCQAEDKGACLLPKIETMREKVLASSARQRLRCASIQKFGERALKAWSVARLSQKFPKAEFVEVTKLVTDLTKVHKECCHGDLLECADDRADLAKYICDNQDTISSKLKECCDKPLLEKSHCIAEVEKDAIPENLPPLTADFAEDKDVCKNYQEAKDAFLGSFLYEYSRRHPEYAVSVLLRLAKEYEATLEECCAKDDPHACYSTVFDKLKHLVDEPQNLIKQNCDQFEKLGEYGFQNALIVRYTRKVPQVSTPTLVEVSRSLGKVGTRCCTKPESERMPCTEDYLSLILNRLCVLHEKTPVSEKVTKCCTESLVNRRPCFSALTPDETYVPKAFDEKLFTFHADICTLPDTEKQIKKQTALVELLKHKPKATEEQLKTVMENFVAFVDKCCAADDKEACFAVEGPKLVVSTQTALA
Chain of ADP-ribosylation factor GTPase-activating protein 1 (Q62848 whole entry, the tested form may be a part): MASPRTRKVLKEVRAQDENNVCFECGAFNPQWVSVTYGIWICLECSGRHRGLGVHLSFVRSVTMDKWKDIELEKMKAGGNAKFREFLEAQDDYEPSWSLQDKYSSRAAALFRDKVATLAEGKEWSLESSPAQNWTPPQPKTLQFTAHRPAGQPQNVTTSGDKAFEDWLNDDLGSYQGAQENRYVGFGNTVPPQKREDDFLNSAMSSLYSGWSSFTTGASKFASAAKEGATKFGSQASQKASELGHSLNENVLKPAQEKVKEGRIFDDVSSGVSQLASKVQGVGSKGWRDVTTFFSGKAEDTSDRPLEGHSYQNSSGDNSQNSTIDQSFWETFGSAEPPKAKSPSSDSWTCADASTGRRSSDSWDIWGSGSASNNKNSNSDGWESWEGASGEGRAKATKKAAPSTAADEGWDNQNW
Chain of Arf-GAP with SH3 domain, ANK repeat and PH domain-containing protein 1 (Q9ULH1 whole entry, the tested form may be a part): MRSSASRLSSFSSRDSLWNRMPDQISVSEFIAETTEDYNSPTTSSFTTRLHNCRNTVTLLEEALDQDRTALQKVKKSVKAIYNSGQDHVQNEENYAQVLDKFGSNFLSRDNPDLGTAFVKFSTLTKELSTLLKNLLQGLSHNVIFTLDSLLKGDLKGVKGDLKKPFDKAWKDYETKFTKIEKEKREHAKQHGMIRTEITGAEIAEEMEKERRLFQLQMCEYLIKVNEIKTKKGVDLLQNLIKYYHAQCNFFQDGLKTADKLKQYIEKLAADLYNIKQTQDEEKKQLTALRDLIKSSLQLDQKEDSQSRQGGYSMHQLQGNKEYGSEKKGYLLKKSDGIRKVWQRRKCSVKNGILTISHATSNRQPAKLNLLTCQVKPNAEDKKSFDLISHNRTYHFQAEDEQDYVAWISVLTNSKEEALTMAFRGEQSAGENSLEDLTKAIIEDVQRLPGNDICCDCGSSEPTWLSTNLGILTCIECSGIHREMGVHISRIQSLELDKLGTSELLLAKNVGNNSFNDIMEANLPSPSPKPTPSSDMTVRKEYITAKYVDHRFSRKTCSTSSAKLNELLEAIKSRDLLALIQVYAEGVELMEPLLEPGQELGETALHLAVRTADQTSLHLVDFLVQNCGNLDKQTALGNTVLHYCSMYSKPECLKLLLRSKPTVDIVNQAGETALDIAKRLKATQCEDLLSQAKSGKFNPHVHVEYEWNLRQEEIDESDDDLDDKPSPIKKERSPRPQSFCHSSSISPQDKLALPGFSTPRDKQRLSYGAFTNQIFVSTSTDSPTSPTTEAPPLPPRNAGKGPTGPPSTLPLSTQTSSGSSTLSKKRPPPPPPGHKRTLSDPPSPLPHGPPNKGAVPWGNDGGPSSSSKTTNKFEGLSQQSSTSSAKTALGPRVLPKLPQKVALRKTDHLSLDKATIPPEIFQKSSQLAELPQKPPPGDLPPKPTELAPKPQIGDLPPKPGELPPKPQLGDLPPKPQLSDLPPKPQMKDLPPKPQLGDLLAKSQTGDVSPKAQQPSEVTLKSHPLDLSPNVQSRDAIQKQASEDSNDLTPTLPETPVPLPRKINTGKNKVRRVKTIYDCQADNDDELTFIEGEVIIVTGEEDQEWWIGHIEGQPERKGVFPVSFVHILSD

CN(C)S(=O)(=O)c1cccc(C(=O)OCC(=O)Nc2sccc2C#N)c1
AC50 [1]: > 100 µM (inactive)

O=C(COc1ccc2oc(-c3ccco3)cc(=O)c2c1)N1CCCCC1
IC50 [2]: 28.5 µM (inactive)
IC50 [3]: 22.4 µM (inactive)

CC(COc1ccccc1)N1CCC(CO)(Cc2ccccc2)CC1 (stereo unspecified)
EC50 [4]: 5.96 µM (active)
EC50 (Mu-type opioid receptor): 92.5 µM (inactive)
EC50 [5]: 0.59 µM (active)

Nc1ccc(CC2=NCCN2)cc1
AC50 [6]: 0.739 µM (active)

CN1c2ccccc2C(O)=C(C(S)=Nc2ccc(Cl)cc2)S1(=O)=O
EC50 [7]: > 260 µM (inconclusive)
IC50 [8]: 24.7 µM (active)
EC50 [9]: > 53 µM (inactive)
AC50 [1]: > 100 µM (inactive)

COc1ccc(CN2CCN(c3ccccn3)CC2)c(OC)c1
EC50 (Mu-type opioid receptor): 92.5 µM (inactive)
EC50 [5]: 0.529 µM (active)

COc1ccc(C(=O)NC(=S)NNC(=O)c2ccc(O)cc2)cc1[N+](=O)[O-]
IC50 (Albumin): > 94.1 µM (inactive)

CCc1ccc(O)c(/N=C/c2ccccc2O)c1
CC50 [10]: 100 µM (active)
IC50 [11]: 36.9 µM (active)

Cc1ccc(Cl)c(OCCCN(C)Cc2ccccc2)c1
CC50 [10]: 100 µM (active)
IC50 [11]: 165 µM (active)

COc1ccc(CC2(CO)CCN(Cc3cc4ccccc4o3)CC2)cc1
EC50 (Mu-type opioid receptor): 92.5 µM (inactive)
EC50 [5]: 1.07 µM (active)

O=Cc1ccc(N2N=C(c3ccccc3)CC2c2ccccc2)cc1 (stereo unspecified)
AC50 [1]: 26.5 µM (active)
